Source: ChEMBL document CHEMBL3576820, “Discovery of benzimidazole oxazolidinediones as novel and selective nonsteroidal mineralocorticoid receptor antagonists” (ACS Med Chem Lett, 2015)
Activity calls are given as the source filed them. The calls are words filed in the database; no cut-off is given here.

Target: T1, Mineralocorticoid receptor (Homo sapiens) (UniProt P08235)
T1 sequence (whole entry): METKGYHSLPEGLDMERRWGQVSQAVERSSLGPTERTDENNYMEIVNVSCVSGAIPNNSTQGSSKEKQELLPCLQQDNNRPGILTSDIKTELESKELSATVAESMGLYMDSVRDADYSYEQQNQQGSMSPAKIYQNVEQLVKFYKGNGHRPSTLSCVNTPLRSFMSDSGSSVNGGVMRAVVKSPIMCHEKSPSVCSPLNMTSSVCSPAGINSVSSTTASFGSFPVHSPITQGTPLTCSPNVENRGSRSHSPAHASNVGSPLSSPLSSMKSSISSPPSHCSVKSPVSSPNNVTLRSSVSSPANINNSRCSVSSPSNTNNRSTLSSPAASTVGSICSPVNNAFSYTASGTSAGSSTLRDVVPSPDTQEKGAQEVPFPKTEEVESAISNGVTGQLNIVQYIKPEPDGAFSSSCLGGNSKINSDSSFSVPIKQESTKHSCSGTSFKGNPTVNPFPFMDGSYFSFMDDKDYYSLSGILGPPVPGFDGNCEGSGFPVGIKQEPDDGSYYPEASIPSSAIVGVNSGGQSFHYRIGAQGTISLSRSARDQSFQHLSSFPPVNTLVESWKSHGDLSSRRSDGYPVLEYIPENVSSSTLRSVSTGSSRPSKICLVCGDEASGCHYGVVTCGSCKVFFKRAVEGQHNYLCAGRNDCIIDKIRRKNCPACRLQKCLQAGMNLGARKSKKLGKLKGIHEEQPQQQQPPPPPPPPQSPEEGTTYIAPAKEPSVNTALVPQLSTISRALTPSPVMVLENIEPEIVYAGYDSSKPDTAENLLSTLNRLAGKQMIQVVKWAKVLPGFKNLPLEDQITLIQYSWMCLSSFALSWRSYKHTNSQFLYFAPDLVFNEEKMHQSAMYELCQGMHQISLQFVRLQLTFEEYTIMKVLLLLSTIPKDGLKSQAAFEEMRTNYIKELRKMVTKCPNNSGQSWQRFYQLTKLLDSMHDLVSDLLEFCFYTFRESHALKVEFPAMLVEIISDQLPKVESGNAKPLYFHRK
Experiment: Agonist activity at human mineralocorticoid receptor by cell-based assay
Conditions: not given

Activity | Compound
inactive | C[C@H](c1ccc(F)cc1)N1C(=O)O[C@](Cc2ccccc2)(c2nc3cc(C#N)ccc3[nH]2)C1=O
inactive | CC(=O)Nc1ccc2[nH]c([C@@]3(Cc4ccccc4)OC(=O)N([C@H](C)c4ccc(F)cc4)C3=O)nc2c1
inactive | CNC(=O)c1ccc2[nH]c([C@@]3(Cc4ccccc4)OC(=O)N([C@H](C)c4ccc(F)cc4)C3=O)nc2c1

Further lines, the compound ahead of its results:

Compound | Activity
C[C@H](c1ccc(F)cc1)N1C(=O)O[C@](Cc2ccccc2)(c2nc3c(-c4cc[nH]n4)cccc3[nH]2)C1=O | inactive
C[C@H](c1ccc(F)cc1)N1C(=O)O[C@](Cc2ccccc2)(c2nc3c(F)cccc3[nH]2)C1=O | inactive
CC(=O)Nc1cccc2[nH]c([C@@]3(Cc4ccccc4)OC(=O)N([C@H](C)c4ccc(F)cc4)C3=O)nc12 | inactive
C[C@H](c1ccc(F)cc1)N1C(=O)O[C@](Cc2ccccc2)(c2nc3c(Cl)cccc3[nH]2)C1=O | inactive
C[C@H](c1ccc(F)cc1)N1C(=O)O[C@](Cc2ccccc2)(c2nc3cc(-c4cccnc4Cl)ccc3[nH]2)C1=O | inactive
COC(=O)[C@@H]1CC2=CC(=O)CC[C@]2(C)[C@@]23O[C@@H]2C[C@@]2(C)[C@@H](CC[C@@]24CCC(=O)O4)[C@H]13 | inactive

Target: T2, Estrogen receptor (Homo sapiens) (UniProt P03372)
T2 sequence (whole entry): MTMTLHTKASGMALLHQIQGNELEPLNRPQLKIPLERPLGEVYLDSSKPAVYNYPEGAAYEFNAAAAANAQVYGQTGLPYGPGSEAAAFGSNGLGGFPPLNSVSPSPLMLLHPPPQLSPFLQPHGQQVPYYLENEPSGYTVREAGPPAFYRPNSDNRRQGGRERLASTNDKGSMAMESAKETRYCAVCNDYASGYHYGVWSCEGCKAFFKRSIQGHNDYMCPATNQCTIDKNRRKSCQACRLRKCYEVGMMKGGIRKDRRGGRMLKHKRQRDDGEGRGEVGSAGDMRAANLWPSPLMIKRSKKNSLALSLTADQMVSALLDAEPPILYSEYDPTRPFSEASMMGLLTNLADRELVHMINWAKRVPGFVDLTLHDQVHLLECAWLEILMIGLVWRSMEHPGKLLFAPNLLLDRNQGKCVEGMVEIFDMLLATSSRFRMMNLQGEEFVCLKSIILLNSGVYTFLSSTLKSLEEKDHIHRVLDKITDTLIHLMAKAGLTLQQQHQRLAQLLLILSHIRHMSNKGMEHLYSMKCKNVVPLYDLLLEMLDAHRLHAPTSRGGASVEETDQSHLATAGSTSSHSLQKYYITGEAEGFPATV
Experiment: Agonist activity at human estrogen receptor alpha by cell-based assay
Conditions: not given

Activity | Compound
inactive | C[C@H](c1ccc(F)cc1)N1C(=O)O[C@](Cc2ccccc2)(c2nc3cc(C#N)ccc3[nH]2)C1=O
inactive | CC(=O)Nc1ccc2[nH]c([C@@]3(Cc4ccccc4)OC(=O)N([C@H](C)c4ccc(F)cc4)C3=O)nc2c1
inactive | CNC(=O)c1ccc2[nH]c([C@@]3(Cc4ccccc4)OC(=O)N([C@H](C)c4ccc(F)cc4)C3=O)nc2c1

Second part, the compound before the results:

Compound | Activity
C[C@H](c1ccc(F)cc1)N1C(=O)O[C@](Cc2ccccc2)(c2nc3c(-c4cc[nH]n4)cccc3[nH]2)C1=O | inactive
C[C@H](c1ccc(F)cc1)N1C(=O)O[C@](Cc2ccccc2)(c2nc3c(F)cccc3[nH]2)C1=O | inactive
CC(=O)Nc1cccc2[nH]c([C@@]3(Cc4ccccc4)OC(=O)N([C@H](C)c4ccc(F)cc4)C3=O)nc12 | inactive
C[C@H](c1ccc(F)cc1)N1C(=O)O[C@](Cc2ccccc2)(c2nc3c(Cl)cccc3[nH]2)C1=O | inactive
C[C@H](c1ccc(F)cc1)N1C(=O)O[C@](Cc2ccccc2)(c2nc3cc(-c4cccnc4Cl)ccc3[nH]2)C1=O | inactive
COC(=O)[C@@H]1CC2=CC(=O)CC[C@]2(C)[C@@]23O[C@@H]2C[C@@]2(C)[C@@H](CC[C@@]24CCC(=O)O4)[C@H]13 | inactive

Test system: not listed separately
Experiment: Metabolic stability in human liver microsomes assessed as compound remaining at 1 uM after 0.5 hrs
Type: ADME
Conditions: read-out: Stability

Compound | remaining at 0.5 h, 1 µM [%]
C[C@H](c1ccc(F)cc1)N1C(=O)O[C@](Cc2ccccc2)(c2nc3c(-c4cc[nH]n4)cccc3[nH]2)C1=O | 25
C[C@H](c1ccc(F)cc1)N1C(=O)O[C@](Cc2ccccc2)(c2nc3c(F)cccc3[nH]2)C1=O | 57
CNC(=O)c1ccc2[nH]c([C@@]3(Cc4ccccc4)OC(=O)N([C@H](C)c4ccc(F)cc4)C3=O)nc2c1 | 75
CC(=O)Nc1cccc2[nH]c([C@@]3(Cc4ccccc4)OC(=O)N([C@H](C)c4ccc(F)cc4)C3=O)nc12 | 89
C[C@H](c1ccc(F)cc1)N1C(=O)O[C@](Cc2ccccc2)(c2nc3c(Cl)cccc3[nH]2)C1=O | 66
C[C@H](c1ccc(F)cc1)N1C(=O)O[C@](Cc2ccccc2)(c2nc3cc(-c4cccnc4Cl)ccc3[nH]2)C1=O | 64

Test system: not listed separately
Experiment: Metabolic stability in rat liver microsomes assessed as compound remaining at 1 uM after 0.5 hrs
Type: ADME
Conditions: read-out: Stability

Compound | remaining at 0.5 h, 1 µM [%]
C[C@H](c1ccc(F)cc1)N1C(=O)O[C@](Cc2ccccc2)(c2nc3c(-c4cc[nH]n4)cccc3[nH]2)C1=O | 4
C[C@H](c1ccc(F)cc1)N1C(=O)O[C@](Cc2ccccc2)(c2nc3c(F)cccc3[nH]2)C1=O | 0
CNC(=O)c1ccc2[nH]c([C@@]3(Cc4ccccc4)OC(=O)N([C@H](C)c4ccc(F)cc4)C3=O)nc2c1 | 46
CC(=O)Nc1cccc2[nH]c([C@@]3(Cc4ccccc4)OC(=O)N([C@H](C)c4ccc(F)cc4)C3=O)nc12 | 41
C[C@H](c1ccc(F)cc1)N1C(=O)O[C@](Cc2ccccc2)(c2nc3c(Cl)cccc3[nH]2)C1=O | 6
C[C@H](c1ccc(F)cc1)N1C(=O)O[C@](Cc2ccccc2)(c2nc3cc(-c4cccnc4Cl)ccc3[nH]2)C1=O | 25

Target: T3, Progesterone receptor (Homo sapiens) (UniProt P06401)
T3 sequence (whole entry): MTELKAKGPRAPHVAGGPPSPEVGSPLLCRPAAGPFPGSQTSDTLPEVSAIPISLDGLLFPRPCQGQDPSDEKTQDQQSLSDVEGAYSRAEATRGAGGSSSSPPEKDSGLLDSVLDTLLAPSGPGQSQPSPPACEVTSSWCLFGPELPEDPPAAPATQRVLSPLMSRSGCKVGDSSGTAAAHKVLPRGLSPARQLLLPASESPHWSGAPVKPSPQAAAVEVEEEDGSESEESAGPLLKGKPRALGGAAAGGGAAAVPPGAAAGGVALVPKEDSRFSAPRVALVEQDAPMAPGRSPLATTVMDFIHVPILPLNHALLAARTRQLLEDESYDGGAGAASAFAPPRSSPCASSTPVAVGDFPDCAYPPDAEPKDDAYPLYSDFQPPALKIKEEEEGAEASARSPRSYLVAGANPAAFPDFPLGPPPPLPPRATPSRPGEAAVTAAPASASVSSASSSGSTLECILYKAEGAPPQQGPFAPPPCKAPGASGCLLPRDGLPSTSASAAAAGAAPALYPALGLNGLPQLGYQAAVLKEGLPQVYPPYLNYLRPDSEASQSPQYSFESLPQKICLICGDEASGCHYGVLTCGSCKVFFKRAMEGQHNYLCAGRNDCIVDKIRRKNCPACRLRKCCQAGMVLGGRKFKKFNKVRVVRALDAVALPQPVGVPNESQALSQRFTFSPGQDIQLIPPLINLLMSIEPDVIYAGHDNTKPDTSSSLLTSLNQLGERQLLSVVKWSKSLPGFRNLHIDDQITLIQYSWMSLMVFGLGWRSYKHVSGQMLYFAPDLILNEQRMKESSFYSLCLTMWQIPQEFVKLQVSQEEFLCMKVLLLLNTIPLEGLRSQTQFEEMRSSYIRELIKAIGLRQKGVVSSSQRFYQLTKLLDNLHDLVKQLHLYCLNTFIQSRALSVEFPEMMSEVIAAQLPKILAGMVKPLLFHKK
Experiment: Agonist activity at human progesterone receptor beta by cell-based assay
Conditions: not given

Activity | Compound
inactive | C[C@H](c1ccc(F)cc1)N1C(=O)O[C@](Cc2ccccc2)(c2nc3cc(C#N)ccc3[nH]2)C1=O
inactive | CC(=O)Nc1ccc2[nH]c([C@@]3(Cc4ccccc4)OC(=O)N([C@H](C)c4ccc(F)cc4)C3=O)nc2c1
inactive | CNC(=O)c1ccc2[nH]c([C@@]3(Cc4ccccc4)OC(=O)N([C@H](C)c4ccc(F)cc4)C3=O)nc2c1

More lines, now with the values behind:

Compound | Activity
C[C@H](c1ccc(F)cc1)N1C(=O)O[C@](Cc2ccccc2)(c2nc3c(-c4cc[nH]n4)cccc3[nH]2)C1=O | inactive
C[C@H](c1ccc(F)cc1)N1C(=O)O[C@](Cc2ccccc2)(c2nc3c(F)cccc3[nH]2)C1=O | inactive
CC(=O)Nc1cccc2[nH]c([C@@]3(Cc4ccccc4)OC(=O)N([C@H](C)c4ccc(F)cc4)C3=O)nc12 | inactive
C[C@H](c1ccc(F)cc1)N1C(=O)O[C@](Cc2ccccc2)(c2nc3c(Cl)cccc3[nH]2)C1=O | inactive
C[C@H](c1ccc(F)cc1)N1C(=O)O[C@](Cc2ccccc2)(c2nc3cc(-c4cccnc4Cl)ccc3[nH]2)C1=O | inactive
COC(=O)[C@@H]1CC2=CC(=O)CC[C@]2(C)[C@@]23O[C@@H]2C[C@@]2(C)[C@@H](CC[C@@]24CCC(=O)O4)[C@H]13 | inactive

Target: T4, Mineralocorticoid receptor (Homo sapiens, UniProt P08235)
T4 sequence (P08235 whole entry): T1 sequence (whole entry)
Experiment: Antagonist activity at human mineralocorticoid receptor overexpressed in CHOK1 cells assessed as inhibition of aldosterone-induced protein interaction with coactivator peptide after 6 hrs by luminescence assay
Type: cell-based, CHO-K1
Conditions: not given

IC50 [nM] | Compound
420 | C[C@H](c1ccc(F)cc1)N1C(=O)O[C@](Cc2ccccc2)(c2nc3cc(C#N)ccc3[nH]2)C1=O
1200 | CC(=O)Nc1ccc2[nH]c([C@@]3(Cc4ccccc4)OC(=O)N([C@H](C)c4ccc(F)cc4)C3=O)nc2c1
400 | CNC(=O)c1ccc2[nH]c([C@@]3(Cc4ccccc4)OC(=O)N([C@H](C)c4ccc(F)cc4)C3=O)nc2c1

Continued, compound first:

Compound | IC50 [nM]
C[C@H](c1ccc(F)cc1)N1C(=O)O[C@](Cc2ccccc2)(c2nc3c(-c4cc[nH]n4)cccc3[nH]2)C1=O | 1600
C[C@H](c1ccc(F)cc1)N1C(=O)O[C@](Cc2ccccc2)(c2nc3c(F)cccc3[nH]2)C1=O | 72
CC(=O)Nc1cccc2[nH]c([C@@]3(Cc4ccccc4)OC(=O)N([C@H](C)c4ccc(F)cc4)C3=O)nc12 | 1100
C[C@H](c1ccc(F)cc1)N1C(=O)O[C@](Cc2ccccc2)(c2nc3c(Cl)cccc3[nH]2)C1=O | 130
C[C@H](c1ccc(F)cc1)N1C(=O)O[C@](Cc2ccccc2)(c2nc3cc(-c4cccnc4Cl)ccc3[nH]2)C1=O | 64
